Reference: US20130337485A1, “ENZYMATIC SYNTHESIS OF ACTIVE PHARMACEUTICAL INGREDIENT AND INTERMEDIATES THEREOF” (LEK PHARMACEUTICALS D.D, priority 2010, published 2013)

Experiments:
[1] = target: T1, E. coli YliI aldose dehydrogenase (Escherichia coli, UniProt P75804, A204V); test: Substrate specificity and pH optima of E. coli YliI aldose dehydrogenase (DCPIP method); format: biochemical; conditions: for Activity of E. coli BL21(DE3) pET30/Ylil on substrate, resting whole cell: 50 mM substrate, 5 μM PQQ, 10 mM MgCl2
T1 construct: made in house; host or cells: E. coli BL21(DE3) carrying pET30/YliI; not purified (resting whole cells or cell free lysate), reconstituted with PQQ and MgCl2
T1 sequence (P75804 21-371 A204V): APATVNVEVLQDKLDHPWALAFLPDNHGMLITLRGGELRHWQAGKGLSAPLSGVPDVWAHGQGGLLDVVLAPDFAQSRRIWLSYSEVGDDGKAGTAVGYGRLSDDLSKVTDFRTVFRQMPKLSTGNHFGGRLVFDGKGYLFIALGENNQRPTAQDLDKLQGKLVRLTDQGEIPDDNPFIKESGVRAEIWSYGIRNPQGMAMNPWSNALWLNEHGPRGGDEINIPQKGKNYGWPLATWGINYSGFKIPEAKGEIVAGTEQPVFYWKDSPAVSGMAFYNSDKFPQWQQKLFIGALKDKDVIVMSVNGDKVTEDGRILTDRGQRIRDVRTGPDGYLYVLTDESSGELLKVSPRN
Protocol: (§1) Final volume of reaction mixture was 200 μL, all components were dissolved in phosphate buffer pH 8.0.
(§2) The catalyst E. coli BL21 pET30/YliI culture obtained either as resting whole cell catalyst (obtained undertaking Procedure 1C) or as lysate (as described in Example 2). The initial pH value of reaction mixture was 8.0. All tested solutions were made in triplicates.
(§3) The second reaction mixture was prepared identically to the above with a sole difference: the pH value of assembled mixture being 6.0 (all compounds of reaction mixture were dissolved in phosphate buffer pH 6.0 and the initial pH value of reaction mixture was thus 6.0). All tested solutions were made in triplicates.
(§4) Experiment was performed as described in Example 11. In the table below are shown activities of “analyzed material” (abs[mAU min^−1 mg^−1])

[2] = target: T2, membrane bound glucose dehydrogenase from E. coli, the Gcd (Escherichia coli, UniProt P15877); test: Substrate specificity and pH optima of membrane bound glucose dehydrogenase Gcd (DCPIP method); format: biochemical; conditions: for Activity of E. coli BL21(DE3) pET30/Gcd on substrate, lysate / Activity of E. coli BL21(DE3) pET30/Gcd on substrate, resting whole cell: 50 mM substrate, 5 μM PQQ, 10 mM MgCl2
T2 construct: made in house; host or cells: E. coli BL21(DE3) carrying pET30/Gcd; not purified (resting whole cells or lysate), reconstituted with PQQ and MgCl2
T2 sequence (P15877 1-796): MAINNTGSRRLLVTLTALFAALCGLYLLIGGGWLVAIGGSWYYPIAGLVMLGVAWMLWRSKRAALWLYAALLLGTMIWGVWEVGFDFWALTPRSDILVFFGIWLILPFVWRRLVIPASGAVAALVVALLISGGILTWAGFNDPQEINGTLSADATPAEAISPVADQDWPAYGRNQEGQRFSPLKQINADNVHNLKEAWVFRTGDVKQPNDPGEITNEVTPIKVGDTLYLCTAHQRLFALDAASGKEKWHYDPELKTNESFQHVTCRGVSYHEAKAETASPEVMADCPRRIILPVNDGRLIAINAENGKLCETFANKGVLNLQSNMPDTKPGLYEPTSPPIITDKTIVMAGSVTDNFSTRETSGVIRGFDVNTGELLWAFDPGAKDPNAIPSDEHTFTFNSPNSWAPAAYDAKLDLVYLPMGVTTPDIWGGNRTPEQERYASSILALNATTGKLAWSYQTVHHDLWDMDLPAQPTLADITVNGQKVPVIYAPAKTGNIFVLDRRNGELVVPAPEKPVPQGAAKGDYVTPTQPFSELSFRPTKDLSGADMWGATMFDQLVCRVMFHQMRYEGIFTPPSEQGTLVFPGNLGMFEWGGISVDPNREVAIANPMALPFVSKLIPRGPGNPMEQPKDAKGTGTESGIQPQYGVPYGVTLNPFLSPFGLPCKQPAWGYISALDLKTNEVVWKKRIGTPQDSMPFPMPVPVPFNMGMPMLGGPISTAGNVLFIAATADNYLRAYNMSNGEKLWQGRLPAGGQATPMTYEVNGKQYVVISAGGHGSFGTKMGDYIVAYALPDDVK
Protocol: To investigate substrate specificity and pH optima of said E. coli membrane aldose dehydrogenase the above mentioned experiments were performed on the catalyst E. coli BL21 pET30/Gcd.

[3] = target: T3, E. coli YliI aldose dehydrogenase (Escherichia coli, UniProt P75804); test: Substrate specificity and pH optima of E. coli YliI aldose dehydrogenase (DCPIP method); format: biochemical; conditions: 50 mM substrate, 5 μM PQQ, 10 mM MgCl2
T3 construct: made in house; host or cells: E. coli BL21(DE3) carrying pET30/YliI; not purified (resting whole cells or cell free lysate), reconstituted with PQQ and MgCl2
T3 sequence (P75804 21-371 A204V): as the sequence (P75804 21-371 A204V) above
Protocol: as §1, §2, §3, §4

[4] = test system: whole cell catalyst E. coli BL21 pET30/Gcd; test: Whole cell catalysis capability in bioreactor using pO2 sensor; format: cell-based; conditions: pH 6.2, 37° C., 5 μM PQQ, 10 mM MgCl2
Protocol: Laboratory bioreactors Infors ISF100 with maximal volume of 2 L were used for determination of whole cell catalysis capability of E. coli aldose dehydrogenases. The reactors were stirred, aerated, temperature and pH controlled as described below. When whole cell catalysts bearing holo aldose dehydrogenases were exposed to various substrates, unusual consumption of O2 appeared.
Experiments were performed using whole cell catalyst E. coli BL21 pET30/Gcd (procedure of preparation in described in Example 1, Procedure 1A and moreover in Example 25).
Whole cell catalysts were dissolved in phosphate buffer (50 mM KH2PO4, 150 mM NaCl, pH 6.2) to concentrations of 5 g/L, 10 g/L and 20 g/L to the final volume ([…] in the bioreactor.
The initial process parameters before substrate was added were as follows: 37° C., air flow rate 1.0 L/min (1.0 VVM), stirrer speed 1000 rpm, pH 6.2 and the dissolved oxygen concentration was kept at ≧80% of saturation. 5 μM PQQ and 10 mM MgCl2 were provided into bioreactor broth. Feeding solution were 12.5% (v/v) ammonium hydroxide solution and the silicone antifoam compound synperonic antifoam (Sigma, A-5551) which were fed continuously.
The system described above is very complex in terms of mathematical description of dissolved oxygen levels over the time. On the one hand these are depending on the kLa (vessel properties, stirring, aeration, medium, temperature etc) and enzymatic kinetics on the aldose dehydrogenase on the other hand. In addition the oxygen probe delay kinetics play an important role. We have therefore found empirically, that oxygen consumption in the phase after the pulse feed of the substrate till the minimum of the dissolved oxygen in this dynamic system is best correlated to quadratic equation. A good indicator of the activity potential of the studied biocatalyst is the slope of this quadratic equation, measured at specific time value (for example t=15 seconds). The slope was calculated from the first derivative of the quadratic equation.

[5] = target: glucose oxidase from A. niger (Aspergillus niger, UniProt P13006); conditions: cited from earlier work
Sequence of glucose oxidase from A. niger (P13006 17-605): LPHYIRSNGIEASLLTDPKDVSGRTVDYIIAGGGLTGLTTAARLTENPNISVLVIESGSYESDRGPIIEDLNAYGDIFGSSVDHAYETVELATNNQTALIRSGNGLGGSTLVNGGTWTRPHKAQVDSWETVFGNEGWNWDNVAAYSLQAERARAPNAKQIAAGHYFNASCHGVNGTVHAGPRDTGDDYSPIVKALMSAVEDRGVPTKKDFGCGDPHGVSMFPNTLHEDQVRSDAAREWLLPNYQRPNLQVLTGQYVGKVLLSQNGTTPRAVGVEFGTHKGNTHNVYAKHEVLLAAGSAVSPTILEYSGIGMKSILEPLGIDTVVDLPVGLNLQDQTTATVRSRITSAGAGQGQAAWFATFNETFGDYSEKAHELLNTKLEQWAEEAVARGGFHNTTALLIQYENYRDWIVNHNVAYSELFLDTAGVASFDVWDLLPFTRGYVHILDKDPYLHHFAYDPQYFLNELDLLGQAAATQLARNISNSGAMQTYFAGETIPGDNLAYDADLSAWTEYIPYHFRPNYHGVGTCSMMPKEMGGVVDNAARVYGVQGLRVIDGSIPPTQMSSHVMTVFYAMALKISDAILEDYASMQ

[6] = whole cell catalyst BL21 (DE3) pET30/Gcd 5 g/L
[7] = whole cell catalyst BL21 (DE3) pET30/Gcd 10 g/L
[8] = whole cell catalyst BL21 (DE3) pET30/Gcd 20 g/L

Structure (SMILES) | Activity of E. coli BL21(DE3) pET30/Ylil on substrate, lysate ([3]; pH 6.0) | Activity of E. coli BL21(DE3) pET30/Ylil on substrate, lysate ([3]; pH 8.0) | Activity of E. coli BL21(DE3) pET30/Ylil on substrate, resting whole cell ([1]; pH 6.0) | Activity of E. coli BL21(DE3) pET30/Ylil on substrate, resting whole cell ([1]; pH 8.0) | Activity of E. coli BL21(DE3) pET30/Gcd on substrate, lysate ([2]; pH 6.0) | Activity of E. coli BL21(DE3) pET30/Gcd on substrate, resting whole cell ([2]; pH 6.0) | Activity of E. coli BL21(DE3) pET30/Gcd on substrate, lysate ([2]; pH 8.0) | Activity of E. coli BL21(DE3) pET30/Gcd on substrate, resting whole cell ([2]; pH 8.0) | Reaction rate of oxidation by glucose oxidase, glucose as reference (100%) [5] | other results
CC(=O)OC[C@@H]1C[C@@H](O)CC(=O)O1 | – | – | – | – | – | – | – | – | – | Added product concentration above which slight reduction in reaction rates was observed ([1]; E. coli BL21 pET30/YliI, pH 8.0, in addition of 10 g/L substrate): more than 35 g/L; Added product concentration above which slight reduction in reaction rates was observed ([2]; E. coli BL21 pET30/Gcd, pH 6.0, in addition of 10 g/L substrate): more than 55 g/L
CC(=O)OC[C@@H]1C[C@@H](O)CC(O)O1 (stereo partly drawn) | 273 abs[mAU min^−1 mg^−1] | 1913 abs[mAU min^−1 mg^−1] | 270 abs[mAU min^−1 mg^−1] | 1897 abs[mAU min^−1 mg^−1] | 2403 abs[mAU min^−1 mg^−1] | 2403 abs[mAU min^−1 mg^−1] | 1013 abs[mAU min^−1 mg^−1] | 1105 abs[mAU min^−1 mg^−1] | – | Substrate concentration above which slight substrate inhibition to the reaction rate was observed ([1]; E. coli BL21 pET30/YliI, pH 8.0): above 40 g/L; DCPIP discoloration rate compared with D-glucose or D-galactose as substrate ([1]; E. coli BL21 pET30/YliI, pH 8.0, 2.5-10 g/L substrate): about two times faster; Substrate concentration above which slight substrate inhibition to the reaction rate was observed ([2]; E. coli BL21 pET30/Gcd, pH 6.0): above 60 g/L; DCPIP discoloration rate compared with D-glucose or D-galactose as substrate ([2]; E. coli BL21 pET30/Gcd, pH 6.0, 2.5-10 g/L substrate): about two times slower; Slope of quadratic equation of oxygen consumption after substrate pulse [4, 6]: 38652; Slope of quadratic equation of oxygen consumption after substrate pulse [4, 7]: 87425; Slope of quadratic equation of oxygen consumption after substrate pulse [4, 8]: 163562
O=CC[C@@H](O)[C@H](O)[C@H](O)CO [2-deoxy-D-glucose] | – | – | – | – | – | – | – | – | 20-30% | –
CO[C@@H]([C@H](O)[C@@H](O)C=O)[C@H](O)CO [4-O-methyl-D-glucose] | – | – | – | – | – | – | – | – | 15% | –
C[C@@H](O)[C@@H](O)[C@H](O)[C@@H](O)C=O [6-deoxy-D-glucose] | – | – | – | – | – | – | – | – | 10% | –
O=C[C@H](O)[C@@H](O)[C@H](O)[C@H](O)CO [D-glucose] | 210 abs[mAU min^−1 mg^−1] | 321 abs[mAU min^−1 mg^−1] | 350 abs[mAU min^−1 mg^−1] | 356 abs[mAU min^−1 mg^−1] | 2830 abs[mAU min^−1 mg^−1] | 2840 abs[mAU min^−1 mg^−1] | 1305 abs[mAU min^−1 mg^−1] | 1260 abs[mAU min^−1 mg^−1] | – | Slope of quadratic equation of oxygen consumption after substrate pulse [4, 6]: 45813; Slope of quadratic equation of oxygen consumption after substrate pulse [4, 7]: 114771; Slope of quadratic equation of oxygen consumption after substrate pulse [4, 8]: 230631
OCC(O)CO [glycerol] | 70 abs[mAU min^−1 mg^−1] | 235 abs[mAU min^−1 mg^−1] | 85 abs[mAU min^−1 mg^−1] | 247 abs[mAU min^−1 mg^−1] | 202 abs[mAU min^−1 mg^−1] | 215 abs[mAU min^−1 mg^−1] | 100 abs[mAU min^−1 mg^−1] | 102 abs[mAU min^−1 mg^−1] | – | –
